According to US8440830B2, “Tetrahydro-fused pyridines as histone deacetylase inhibitors” (4SC AG, priority 2007, dated 2013):
Where two headings read alike, the source gives them in different places.

Columns and labels:
A549 NSCLC cells [1] = experiment: Cellular cytotoxicity assay (Alamar Blue), A549; type: cell-based; settings: Homo sapiens, 72 h, upper end given as ≧100, read-out: IC50 (μM), cytotoxicity towards A549 NSCLC cells
Outline: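 Resazurin-to-resorufin fluorescence (ex 544, em 590 nm, after 4 h) gave viability as % of untreated cells following 72 h compound exposure at 37 °C. Compounds were added in semi-logarithmic dilutions 24 h post-seeding, quadruplicate wells; IC50 fitted by non-linear regression of concentration-effect curves.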

[2] = tested on: histone H3 hyperacetylation in HeLa cervical carcinoma cells; experiment: Cellular histone H3 hyperacetylation assay; type: cell-based; settings: Homo sapiens, 24 h treatment
Source text: To assess the cellular efficacy of a histone deacetylase inhibitor in vitro, an assay is set up in black clear-bottom 96-well plates and optimized for use on the Cellomics “ArrayScan II” platform for a quantitative calculation of histone acetylation. The protocol uses a polyclonal rabbit antibody, specifically binding to acetylated lysine 1-20 (including K 9 and K14) of human histone H3 on fixed cells with an Alexa Fluor 488 labeled goat anti rabbit-IgG used for counterstaining 5×10^3 HeLa cervical carcinoma cells/well (ATCC CCL-2) in 200 μl Dulbecco's modified Eagle's medium (DMEM) containing 10% fetal calf serum are seeded at day 1 in Packard view plates and incubated for 24 h under standard cell culture conditions. On day 2, 1 μl test compound (200× final concentration) is added and incubation continued for further 24 h. On day 3, the culture medium is discarded and attached cells fixed for 15 min at room temperature by addition of 100 μl fixation buffer (3.7% v:v formaldehyde in phosphate buffered saline/PBS). After discarding the fixation buffer and one wash with blocking solution (1% BSA, 0.3% Tween 20 in PBS), cells are permeabilized at room temperature by addition of 100 μl /well permeabilization buffer (30.8 mM NaCl, 0.54 mM Na2HPO4, 0.31 mM KH2PO4, 0.1% v:v Triton X-100) for 15 min at room temperature. After discarding the permeabilization buffer and washing twice with 100 μl/well blocking solution at room temperature, the 1st antibody (anti-K1-20 histone H3 antibody, Calbiochem No. 382158) in blocking solution (50 μl/well) is added. After incubation for 1 h at room temperature, the wells are washed twice at room temperature with 100 μl/well blocking solution before addition of the 2nd antibody (goat-anti-rabbit Alexa Fluor 488; MoBiTec No. A -11008) in blocking solution (50 μl well). After further incubation for 1 h at room temperature, wells are washed twice with 100 μl/well blocking solution at room temperature. Finally, 100 μl/well PBS are added and image analysis performed on the Cellomics “ArrayScan II” platform. For EC50 determination, the percentage of positive cells showing nuclear fluorescence is determined and EC50 calculation done from concentration-effect curves by means of non-linear regression. For calibration, a positive (reference HDAC inhibitors like SAHA or NVP LBH-589) and a negative control were included.

A549 NSCLC cells [3] = experiment: Cell cycle analysis by flow cytometry; type: cell-based, human; settings: A549, 24 h treatment
Experimental: A549 NSCLC cells (ATTC CCL-185) are cultivated in DMEM with high glucose (supplemented with 10% FBS) at 5% CO2 and 37° C. in a humidified atmosphere under standard cell culture conditions. 24 h before compound treatment, cells are seeded at 5×10^4 cells/ml (=5×10^5 cells/10 cm cell culture dish) to allow logarithmic proliferation during the experiment. After 24 h, cells were treated with test compound or 0.5 vol % DMSO as a control. After 24 h and 48 h treatment, the culture medium is collected and detached, floating cells are collected by short centrifugation (5 min at 1200 rpm). Attached cells are washed once with 5 ml PBS, detached by treatment with 3 ml trypsin/EDTA solution (short incubation for 3-5 min) and—together with detached, floating cells—transferred into 15 ml Falcon tubes. The cell culture dish is washed with 10 ml DMEM to collect all remaining cells. After centrifugation for 5 min at 1200 rpm at room temperature, the supernatant is discarded and the cell pellet washed twice with 10 ml PBS. The supernatant is discarded, the cells resuspended in 4 ml ice-cold fixation solution (70 vol % ethanol, 30 vol % H2O; stored at −20° C.) and stored at −20° C. overnight. Next, 10 ml PBS (4° C.) is added to the cells, before centrifugation for 5 min at 1200 rpm (4° C.). The supernatant is discarded, the cell pellet washed once with 10 ml PBS (4° C.) and the cell pellet finally resuspended in about 1 ml staining solution (10 μg/ml RNAse A, 10 μg/ml propidiumiodide in PBS, final volume dependent on cell number). After incubation for 30 min at room temperature in the dark, cells are stored on ice and analyzed using the Becton Dickinson FACS Canto device. Analysis is done at an excitation of λ=488 nm with emission set as λ=600 nm.
Data analysis: Cells are analyzed according to size, granularity and propidiumiodide intensity. Size and granularity of cells are determined by measurement of forward scatter (FSC) and side scatter (SSC) of the λ=488 nm excitation light, respectively. To discriminate cells with 4N DNA content from cell doublets (two attached cells with 2N DNA content each), the ratio between the area under the propidiumiodide peak (PE-A) and the height of the propidiumiodide peak (PE-H) for each cell is determined. Cell doublets need more time to pass through the laser beam, which causes a broadening of the propidiumiodide peak and an increase of the ratio PE-A/PE-H. Using this analysis, cells in 4N and cell doublets appear as distinct clouds in a scatter plot and are excluded from the analysis. Thus, the area under the propidiumiodide peak at λ=600 nm (PE-A) is a measure for the DNA content of the cells. PE-A is blotted against the measured cell number in a histogram in order to determine the percentage of analyzed cells in an individual stage of the cell cycle.

[4] = read-out: EC50, induction of histone H3 hyperacetylation
[5] = read-out: −lg EC50, induction of histone H3 hyperacetylation

## COc1ccc(S(=O)(=O)N2CCc3nc(C(=O)Nc4ccccc4N)sc3C2)cc1 [Example 153, N-(2-aminophenyl)-5-[(4-methoxyphenyl)sulfonyl]-4,5,6,7-tetrahydro[1,3]thiazolo[5,4-c]pyridine-2-carboxamide]
A549 NSCLC cells [1]
  IC50: ≥ 0.2 µM
[2]; [4]
  EC50: 150 to 15000 nM
[2]; [5]
  EC50: 251 to 15800 nM
A549 NSCLC cells [3]
  concentration inducing arrest in G1, depletion of cells in the S-phase and reduction of cells in the G2/M-phase: around 3 μM

## Nc1ccccc1NC(=O)c1nc2c(s1)CN(C(=O)COc1ccc(-c3ccccc3)cc1)CC2 [Example 176, N-(2-aminophenyl)-5-[(biphenyl-4-yloxy)acetyl]-4,5,6,7-tetrahydro[1,3]thiazolo[5,4-c]pyridine-2-carboxamide]
A549 NSCLC cells [1]
  IC50: ≥ 0.2 µM
[2]; [4]
  EC50: 150 to 15000 nM
[2]; [5]
  EC50: 251 to 15800 nM

## COC(=O)N1CCc2nc(C(=O)Nc3ccccc3N)sc2C1 [Example 180, Methyl 2-[(2-aminophenyl)carbamoyl]-6,7-dihydro[1,3]thiazolo[5,4-c]pyridine-5(4H)-carboxylate]
A549 NSCLC cells [1]
  IC50: ≥ 0.2 µM
[2]; [4]
  EC50: 150 to 15000 nM
[2]; [5]
  EC50: 251 to 15800 nM

## Cc1ccc(OC(=O)N2CCc3nc(C(=O)Nc4ccccc4N)sc3C2)cc1 [Example 182, 4-methylphenyl 2-[(2-aminophenyl)carbamoyl]-6,7-dihydro[1,3]thiazolo[5,4-c]pyridine-5(4H)-carboxylate]
A549 NSCLC cells [1]
  IC50: ≥ 0.2 µM
[2]; [4]
  EC50: 150 to 15000 nM
[2]; [5]
  EC50: 251 to 15800 nM
A549 NSCLC cells [3]
  concentration inducing arrest in G1, depletion of cells in the S-phase and reduction of cells in the G2/M-phase: around 3 μM

## COc1ccc(OC(=O)N2CCc3nc(C(=O)Nc4ccccc4N)sc3C2)cc1 [Example 183, 4-methoxyphenyl 2-[(2-aminophenyl)carbamoyl]-6,7-dihydro[1,3]thiazolo[5,4-c]pyridine-5(4H)-carboxylate]
A549 NSCLC cells [1]
  IC50: ≥ 0.2 µM
[2]; [4]
  EC50: 150 to 15000 nM
[2]; [5]
  EC50: 251 to 15800 nM

## COc1ccc(OC(=O)N2CCc3nc(C(=O)Nc4ccccc4N)sc3C2)cc1OC [Example 186, 3,4-dimethoxyphenyl 2-[(2-aminophenyl)carbamoyl]-6,7-dihydro[1,3]thiazolo[5,4-c]pyridine-5(4H)-carboxylate]
A549 NSCLC cells [1]
  IC50: ≥ 0.2 µM
[2]; [4]
  EC50: 150 to 15000 nM
[2]; [5]
  EC50: 251 to 15800 nM

## Nc1ccccc1NC(=O)c1nc2c(s1)CN(C(=O)OCc1cccnc1)CC2 [Example 189, Pyridin-3-ylmethyl 2-[(2-aminophenyl)carbamoyl]-6,7-dihydro[1,3]thiazolo[5,4-c]pyridine-5(4H)-carboxylate]
A549 NSCLC cells [1]
  IC50: ≥ 0.2 µM
[2]; [4]
  EC50: 150 to 15000 nM
[2]; [5]
  EC50: 251 to 15800 nM
A549 NSCLC cells [3]
  concentration inducing arrest in G1, depletion of cells in the S-phase and reduction of cells in the G2/M-phase: around 3 μM

## Nc1ccccc1NC(=O)c1nc2c(s1)CN(C(=O)C=Cc1ccc3c(c1)OCO3)CC2 [Example 190, N-(2-aminophenyl)-5-[3-(1,3-benzodioxol-5-yl)prop-2-enoyl]-4,5,6,7-tetrahydro[1,3]thiazolo[5,4-c]pyridine-2-carboxamide]
A549 NSCLC cells [1]
  IC50: ≥ 0.2 µM
[2]; [4]
  EC50: 150 to 15000 nM
[2]; [5]
  EC50: 251 to 15800 nM

## Nc1ccccc1NC(=O)c1nc2c(s1)CN(C(=O)C=Cc1ccc(O)c(O)c1)CC2 [Example 191, N-(2-aminophenyl)-5-[3-(3,4-dihydroxyphenyl)prop-2-enoyl]-4,5,6,7-tetrahydro[1,3]thiazolo[5,4-c]pyridine-2-carboxamide]
A549 NSCLC cells [1]
  IC50: ≥ 0.2 µM
[2]; [4]
  EC50: 150 to 15000 nM
[2]; [5]
  EC50: 251 to 15800 nM

## Nc1ccccc1NC(=O)c1nc2c(s1)CN(c1ncccn1)CC2 [Example 192, N-(2-aminophenyl)-5-pyrimidin-2-yl-4,5,6,7-tetrahydro[1,3]thiazolo[5,4-c]pyridine-2-carboxamide]
A549 NSCLC cells [1]
  IC50: ≥ 0.2 µM
[2]; [4]
  EC50: 150 to 15000 nM
[2]; [5]
  EC50: 251 to 15800 nM

## Nc1ccccc1NC(=O)c1nc2c(s1)CN(c1nccc(-c3cccnc3)n1)CC2 [Example 193, N-(2-aminophenyl)-5-(4-pyridin-3-ylpyrimidin-2-yl)-4,5,6,7-tetrahydro[1,3]thiazolo[5,4-c]pyridine-2-carboxamide]
A549 NSCLC cells [1]
  IC50: ≥ 0.2 µM
[2]; [4]
  EC50: 150 to 15000 nM
[2]; [5]
  EC50: 251 to 15800 nM

## Nc1ccccc1NC(=O)c1nc2c(s1)CN(c1ccc([N+](=O)[O-])cn1)CC2 [Example 194, N-(2-aminophenyl)-5-(5-nitropyridin-2-yl)-4,5,6,7-tetrahydro[1,3]thiazolo[5,4-c]pyridine-2-carboxamide]
A549 NSCLC cells [1]
  IC50: ≥ 0.2 µM
[2]; [4]
  EC50: 150 to 15000 nM
[2]; [5]
  EC50: 251 to 15800 nM

## Cc1ccc(S(=O)(=O)Nc2cnc(N3CCc4nc(C(=O)Nc5ccccc5N)sc4C3)nc2)cc1 [Example 196, N-(2-aminophenyl)-5-(5-{[(4-methylphenyl)sulfonyl]amino}pyrimidin-2-yl)-4,5,6,7-tetrahydro[1,3]thiazolo[5,4-c]pyridine-2-carboxamide]
A549 NSCLC cells [1]
  IC50: ≥ 0.2 µM
[2]; [4]
  EC50: 150 to 15000 nM
[2]; [5]
  EC50: 251 to 15800 nM

## Cc1ccc(S(=O)(=O)Nc2ccc(N3CCc4nc(C(=O)Nc5ccccc5N)sc4C3)nc2)cc1 [Example 197, N-(2-aminophenyl)-5-(5-{[(4-methylphenyl)sulfonyl]amino}pyridin-2-yl)-4,5,6,7-tetrahydro[1,3]thiazolo[5,4-c]pyridine-2-carboxamide]
A549 NSCLC cells [1]
  IC50: ≥ 0.2 µM
[2]; [4]
  EC50: 150 to 15000 nM
[2]; [5]
  EC50: 251 to 15800 nM
